Where two headings read alike, the source gives them in different places.
What was measured:
[1] = Pharmacokinetic assay in Balb/c mice (plasma and brain tissue); type: in vivo; details: male, mouse, po
Procedure: Balb/c mice were used as test animals. The pharmacokinetic behavior in mice (plasma and brain tissue) of the compounds of Example 2, Example 5, Example 7, Example 12, Example 18, Example 23, Example 26, Example 38, Example 41, Example 50, Example 51 and Example 66 orally administrated at a dose of 5 mg/kg was studied.
Each group had 24 male Balb/c mice. After an overnight fast, Balb/c mice were administrated p.o. with the test compound at an administration dose of 5 mg/kg and an administration volume of 10 mL/kg.
0.2 ml of blood was taken from the heart before administration and at 0, 0.5, 1, 2, 4, 6, 8 and 24 hours after administration. The samples were stored in EDTA-K2 tubes, and centrifuged for 6 minutes at 4° C., 6000 rpm to separate the plasma. The plasma samples were stored at −80° C. The mice were sacrificed with CO2, and the whole brain tissue was taken out, weighed, placed in a 2 mL centrifuge tube and stored at −80° C.
1) 160 μL of acetonitrile was added to 40 μL of the plasma sample for precipitation, and then the mixture was centrifuged for 5-20 minutes at 3500×g.
2) 90 μL of acetonitrile containing the internal standard (100 ng/mL) was added to 30 μL of the plasma and brain homogenate samples for precipitation, and then the mixture was centrifuged for 8 minutes at 13000 rpm.
3) 70 μL of the treated supernatant was taken and added to 70 μL of water, and mixed by vortex for 10 minutes. 20 μL of the mixture was taken to analyze the concentration of the test compound by LC/MS/MS. LC/MS/MS analysis instrument: AB Sciex API 4000 Qtrap.
2.6 Liquid Chromatography Analysis • Liquid chromatography condition: Shimadzu LC-20AD pump. • Chromatographic column: Agilent ZORBAX XDB-C18 (50×2.1 mm, 3.5 μm); Mobile phase: Eluent A was 0.1% formic acid in water, and Eluent B was acetonitrile. • Flow rate: 0.4 mL/min • Elution time: 0-4.0 minutes the eluent is as follows:
The main parameters of pharmacokinetics were calculated by WinNonlin 6.1.

[2] = test system: CD-1 mice; experiment: In vivo pharmacodynamic test in the PTZ-induced epilepsy model in mice; details: 3 mpk p.o., PTZ 120 mg/kg s.c., 30 min observation
Procedure: The PTZ-induced epilepsy model in CD-1 mice was established, and the antiepileptic effect of the compounds of Example 5 and Example 23 was evaluated using this model.
30 male CD-1 mice were purchased from Beijing Vital River Laboratory Animal Technology Co. Ltd. The test animals were adapted at the animal room in the third building of Shanghai ChemPartner Co., Ltd for 7 days before the test. The average body weight of the animals on the test day was 32.2±0.2 grams. Feeding environment: 5 animals/cage, room temperature 23±2° C., 12/12 hours of light and dark cycle, free access to food and water.
1) Vehicle/PTZ: 0.5% CMC-Na+1% Tween-80 (10 ml/kg, p.o.), administrated 0.5 hr before the PTZ administration; PTZ ([…], s.c.), administrated before the test;
2) 3 mg/kg of the compounds of Examples/PTZ: the compounds of Example 5 and Example 23 (3 mg/kg, 10 ml/kg, p.o.), administrated 0.5 hr before the PTZ administration; PTZ ([…], s.c.), administrated before the test.
3) The compounds of Example 5 and Example 23 were administrated respectively 1 hour before the PTZ administration, or 0.5% CMC-NA+1% Tween-80, the compounds of Example 5 and Example 23 were administrated respectively 0.5 hour before the PTZ administration;
4) PTZ (120 mg/kg) was administrated subcutaneously before the test observation, and this time point was recorded as the observation start point;
6) The possible side effects induced by the drug after the administration were observed and recorded, which can be divided into four levels: • None: normal • Mild sedation • Moderate sedation • Severe sedation
The mice were randomly grouped, marked and weighed; 10 mice per group. The test compound was administrated orally at an administration volume of 10 mL/kg 30-60 minutes before the PTZ administration.
PTZ (120 mg/kg) was administrated subcutaneously before the test observation, and this time point was recorded as the observation start point; after the administration of PTZ, the animal was immediately placed in the observation box and observed for 30 minutes, and the followings were recorded: a) the incubation period of the first clonic seizure, b) the incubation period of the first generalized tonic seizure, c) the number of clonic seizures, d) the number of generalized tonic seizures, e) the time when the animal died.
All measurement data were expressed as Mean±SEM, and analysed with Prism 6.0 statistical software.

[3] = Balb/c, in vivo, 5 mg/kg, Area under curve AUC0-t
[4] = Balb/c, in vivo, 5 mg/kg, Half-life t1/2
[5] = Balb/c, in vivo, 5 mg/kg, Mean residence time MRT
[6] = Balb/c, in vivo, 5 mg/kg, Peak time tmax
[7] = Balb/c, in vivo, 5 mg/kg, Plasma concentration Cmax

C[C@@]1(O)CC[C@@]2(F)[C@H](CC[C@H]3[C@@H]4CC[C@H](C(=O)Cn5cc(C#N)cn5)[C@@]4(C)CC[C@@H]32)C1 [Example 2, 1-(2-((3R,5R,8S,9S,10R,13S,14S,17S)-10-Fluoro-3-hydroxy-3,13-dimethylhexadecahydro-1H-cyclopenta[a]phenanthren-17-yl)-2-oxoethyl)-1H-pyrazole-4-carbonitrile]
AUC(0-t) ([1]; Balb/c, brain, 5 mg/kg, Balb/c mice, 5 mg/kg p.o., brain tissue, read-out: Area under curve AUC0-t): 1770 ng·h/mL | AUC(0-inf) ([1]; Balb/c, brain, 5 mg/kg, Balb/c mice, 5 mg/kg p.o., brain tissue, read-out: Area under curve AUC0-∞): 1790 ng·h/mL | half-life ([1]; Balb/c, brain, 5 mg/kg, Balb/c mice, 5 mg/kg p.o., brain tissue, read-out: Half-life t1/2 (converted)): 1.49 h | MRT ([1]; Balb/c, brain, 5 mg/kg, Balb/c mice, 5 mg/kg p.o., brain tissue, read-out: Mean residence time MRT): 2.26 h | Cmax ([1]; Balb/c, brain, 5 mg/kg, Balb/c mice, 5 mg/kg p.o., brain tissue, read-out: Plasma concentration Cmax): 655 ng/mL | AUC(0-t) ([1]; Balb/c, plasma, 5 mg/kg, Balb/c mice, 5 mg/kg p.o., plasma, read-out: Area under curve AUC0-t): 2660 ng·h/mL | AUC(0-inf) ([1]; Balb/c, plasma, 5 mg/kg, Balb/c mice, 5 mg/kg p.o., plasma, read-out: Area under curve AUC0-∞): 2710 ng·h/mL | half-life ([1]; Balb/c, plasma, 5 mg/kg, Balb/c mice, 5 mg/kg p.o., plasma, read-out: Half-life t1/2 (converted)): 1.49 h | MRT ([1]; Balb/c, plasma, 5 mg/kg, Balb/c mice, 5 mg/kg p.o., plasma, read-out: Mean residence time MRT): 2.49 h | Cmax ([1]; Balb/c, plasma, 5 mg/kg, Balb/c mice, 5 mg/kg p.o., plasma, read-out: Plasma concentration Cmax): 846 ng/mL | Tmax ([1]; Balb/c mice, 5 mg/kg p.o., brain tissue, read-out: Peak time tmax): 1 h | Tmax ([1]; Balb/c mice, 5 mg/kg p.o., plasma, read-out: Peak time tmax): 1 h

C[C@@]1(O)CC[C@@]2(F)[C@H](CC[C@H]3[C@@H]4CC[C@H](C(=O)Cn5ccc(C(F)(F)F)n5)[C@@]4(C)CC[C@@H]32)C1 [Example 5, 1-((3R,5R,8S,9S,10R,13S,14S,17S)-10-Fluoro-3-hydroxy-3,13-dimethylhexadecahydro-1H-cyclopenta[a]phenanthren-17-yl)-2-(3-(trifluoromethyl)-1H-pyrazol-1-yl)ethan-1-one]
Area under curve AUC0-t ([1]; Balb/c, in vivo, 5 mg/kg): 470.9 ng·h/mL | Area under curve AUC0-∞ ([1]; Balb/c, in vivo, 5 mg/kg): 485.5 ng·h/mL | Half-life t1/2 ([1]; Balb/c, in vivo, 5 mg/kg): 0.94 h | Mean residence time MRT ([1]; Balb/c, in vivo, 5 mg/kg): 1.74 h | Plasma concentration Cmax ([1]; Balb/c, in vivo, 5 mg/kg): 233.7 ng/mL | AUC(0-t) [1, 3]: 515 ng·h/mL | AUC(0-inf) ([1]; Balb/c, in vivo, 5 mg/kg, Area under curve AUC0-∞): 524 ng·h/mL | half-life [1, 4]: 1.16 h | MRT [1, 5]: 1.94 h | Tmax [1, 6]: 0.5 h | Cmax [1, 7]: 242 ng/mL | Incubation period of the clonic seizure Mean ± SEM [2]: 644.5 ± 122.0 s | Incubation period of the generalized tonic seizure Mean [2]: 1576.7 ± 108.8 s | Mortality rate [2]: 40% | Number of clonic seizures Mean [2]: 1.8 ± 0.3 | Number of generalized tonic seizures Mean [2]: 0.4 ± 0.2 | Time when the animal died Mean [2]: 1623.0 ± 105.5 s

C[C@@]1(O)CC[C@@]2(F)[C@H](CC[C@H]3[C@@H]4CC[C@H](C(=O)CNc5ccc(F)cc5)[C@@]4(C)CC[C@@H]32)C1 [Example 23, 1-((3R,5R,8S,9S,10R,13S,14S,17S)-10-Fluoro-3-hydroxy-3,13-dimethylhexadecahydro-1H-cyclopenta[a]phenanthren-17-yl)-2-((4-fluorophenyl)amino)ethan-1-one]
Area under curve AUC0-t ([1]; Balb/c, in vivo, 5 mg/kg): 1067.1 ng·h/mL | Half-life t1/2 ([1]; Balb/c, in vivo, 5 mg/kg): 1.36 h | Mean residence time MRT ([1]; Balb/c, in vivo, 5 mg/kg): 2.42 h | Plasma concentration Cmax ([1]; Balb/c, in vivo, 5 mg/kg): 558.0 ng/mL | AUC(0-t) [1, 3]: 545 ng·h/mL | half-life [1, 4]: 1.08 h | MRT [1, 5]: 1.78 h | Tmax [1, 6]: 0.5 h | Cmax [1, 7]: 408 ng/mL | Incubation period of the clonic seizure Mean ± SEM [2]: 366.5 ± 21.1 s | Incubation period of the generalized tonic seizure Mean [2]: 1519.9 ± 117.9 s | Mortality rate [2]: 40% | Number of clonic seizures Mean [2]: 1.8 ± 0.2 | Number of generalized tonic seizures Mean [2]: 0.4 ± 0.2 | Time when the animal died Mean [2]: 1527.7 ± 114.6 s
